Values after ≈ are worked out from the molar mass of the structure shown. “Also recorded” adds a separate entry of the source. Like-named read-outs stand apart in the source and are kept apart here.
How the values were obtained:
[1] = tested on: Mycobacterium tuberculosis strain H37Rv ATCC 27294; test: Antimycobacterial evaluation, MIC by microplate Alamar Blue Assay, retested by BACTEC MGIT 960-TB; assay type: cell-based; conditions: for MIC: M. tuberculosis strain H37Rv ATCC 27294, sensitive to first-choice drugs; for antimycobacterial activity (in words): against M. tuberculosis
[2] = tested on: J77-4 lineage murine macrophages; assay type: cell-based; conditions: mouse
Protocol: The cytotoxicity evaluation of compound 2 was performed with J77-4 lineage murine macrophages.

[3] = Mycobacterium tuberculosis, read-out: MIC
[4] = strains sensitive to first-choice drugs

In the case of `CC(=O)NNC(=O)c1ccncc1` [2-acetylisomide, 2-acetylisoniazide, reference compound], the MIC [1] is reported as “Inactive” and the “antimycobacterial activity (in words)” value [1] is reported as “did not show antimycobacterial activity”.

In the case of `CC(=O)Nc1ccccc1C(=O)C(=O)NNC(=O)c1ccncc1` [Compound 2, N-(2-(2-(2-Isonicotinoylhydrazine)-2-Oxoacetyl)Phenyl) Acetamide], the MIC [1, 3] is reported as 0.37 µM (≈ 0.121 µg/mL), the “antimycobacterial activity (in words)” value [1] is reported as “antimycobacterial activity superior to all the first-choice drugs; also recorded: higher potency than all the first-choice drugs” and the “activity relative to pyrazinamide” value [1, 4] is reported as “almost two thousand and two hundred times more active than pyrazinamide”. For the same compound, the “potency relative to ethambutol” value [1, 4] was “more than forty times more potent than ethambutol”, the “potency relative to isoniazid” value [1, 4] was “twice as potent as isoniazid” and the “potency relative to rifampicin” value [1, 4] was “more than three times more potent than rifampicin”. The “Cell Viability (%)” value ([2]; 1 nM) was 96.8%, the “Cell Viability (%)” value ([2]; 10 nM) was 97.8% and the “Cell Viability (%)” value ([2]; 100 nM) was 97.9%. For the same compound, the “Cell Viability (%)” value [2]; 1 was 97.4%, the “Cell Viability (%)” value [2]; 10 was 97.3% and the “Cell Viability (%)” value [2]; 100 was 98.2%.

With `O=C(NNC(=O)c1ccncc1)C(=O)c1ccccc1NC(=O)c1ccccc1` [Compound 4, reference compound] the MIC ([1]; read-out: MIC) was 8.04 µM (≈ 3.12 µg/mL) and the “antimycobacterial activity (in words)” value [1] was “did not show good activity”.

`CC[C@@H](CO)NCCN[C@@H](CC)CO` [Etambutol, ethambutol, reference compound] gave an MIC [1, 3] of 15.9 µM (≈ 3.25 µg/mL).

Compound `NNC(=O)c1ccncc1` [Isoniazid] has an MIC [1, 3] of 0.73 µM (≈ 0.1 µg/mL).

With `NC(=O)c1cnccn1` [Pyrazinamide, reference compound] the MIC [1, 3] was 813 µM (≈ 100 µg/mL).
